From US10000471B2, “Pyrazole P38 map kinase inhibitors” (Respivert Limited, priority 2010, dated 2018)
pEC50, pIC50: −log10 of the molar value.

Tests used:
[1] = biological target: T1, p38 MAPKγ (MAPK12) (Homo sapiens, UniProt P53778); test: Enzyme inhibition assay (FRET, Z-LYTE), p38 MAPKγ; assay type: biochemical; details: read-out: Enzyme Inhibition IC50 p38γ
T1 construct: purchased Invitrogen
T1 sequence (P53778 1-367): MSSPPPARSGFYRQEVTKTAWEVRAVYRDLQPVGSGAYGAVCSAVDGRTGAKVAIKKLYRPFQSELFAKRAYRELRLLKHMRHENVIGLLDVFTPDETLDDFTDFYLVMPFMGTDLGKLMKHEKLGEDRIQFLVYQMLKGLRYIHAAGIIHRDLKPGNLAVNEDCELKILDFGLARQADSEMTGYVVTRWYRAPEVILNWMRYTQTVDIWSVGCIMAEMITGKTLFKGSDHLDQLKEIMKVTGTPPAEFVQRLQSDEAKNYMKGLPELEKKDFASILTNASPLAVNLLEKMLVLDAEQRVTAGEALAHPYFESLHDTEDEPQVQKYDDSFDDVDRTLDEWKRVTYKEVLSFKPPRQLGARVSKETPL
How it was run: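 Z-LYTE FRET readout: after 1 h kinase reaction (ATP 100 μM, peptide 2 μM) following 2 h RT enzyme–compound preincubation in HEPES, protease cleaves only unphosphorylated peptide. Percent inhibition from donor/acceptor ratio relative to control; IC50 fitted from the curve.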

[2] = tested on: IL-8 release in d-U937 cells; test: LPS-induced IL-8 release in d-U937 cells; assay type: cell-based, human; details: Homo sapiens, dU937
How it was run: (§1)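 Sandwich ELISA of TNFα and IL-8 in supernatants after 4 hr 0.1 μg/mL LPS (E. coli O111:B4) challenge of U937 cells differentiated with PMA 100 ng/ml for 48–72 hr, compound added 2 hr beforehand. IL-8: IC50 from inhibition versus vehicle; TNFα: REC50 from inhibition as percentage of 10 μg/mL BIRB796 effect.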

[3] = tested on: TNFα release in d-U937 cells; test: LPS-induced TNFα release in d-U937 cells; assay type: cell-based, human; details: Homo sapiens, dU937, relative to 10 μg/mL BIRB796, read-out: LPS/TNFα REC50 d-U937
How it was run: as §1

[4] = biological target: T2, p38 MAPKα isoform (MAPK14) (Homo sapiens, UniProt Q16539); test: Enzyme inhibition assay (FRET, Z-LYTE), p38 MAPKα via MAPKAP-K2 activation; assay type: biochemical; details: read-out: Enzyme Inhibition IC50 p38α
T2 construct: purchased Invitrogen
How it was run: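 Z-LYTE FRET format, in which protease cleaves only non-phosphorylated peptide, read after 1 h development. Compound was mixed with p38 MAPKα for 2 h at RT, and inhibition was gauged from MAPKAP-K2 activation/phosphorylation rather than directly. Percent inhibition against an uninhibited control was fitted to give IC50.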

[5] = tested on: ICAM-1 induction in BEAS2B cells; test: Poly I:C-induced ICAM-1 induction in BEAS2B cells; assay type: cell-based, human; details: Homo sapiens, BEAS-2B, read-out: PolyIC/ICAM1 IC50 BEAS2B
How it was run: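 IC50 reflects inhibition of cell-surface ICAM-1 relative to vehicle, read by ELISA (OD450 against 655 nm) and divided by crystal violet OD595 for cell number. Readings were taken 18 hr after transfection of 1 μg/mL poly I:C into BEAS2B cells. Compound was added 2 hr before stimulation.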

[6] = tested on: Differentiated U937 cells; test: Cell viability MTT assay; assay type: cell-based, human; details: negative = apparent increase in viability; for MTT Assay (Viability) 4 h d-U937, percentage loss of cell viability: 4 hr in 5% FCS; for MTT Assay (Viability) 24 h d-U937, percentage loss of cell viability: 24 h in 10% FCS
How it was run: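 Differentiated U937 cells pre-incubated with compound either 4 hr in 5% FCS or 24 h in 10% FCS, then 1 hr MTT. Formazan dissolved in DMSO, absorbance at 550 nm. Percentage viability loss relative to 0.5% DMSO vehicle; apparent increases appear as negative percentages.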

[7] = tested on: TNFα release in THP-1 cells; test: LPS-induced TNFα release in THP-1 cells; assay type: cell-based, human; details: Homo sapiens
How it was run: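 IC50 derived from concentration-response of TNFα inhibition relative to vehicle, with TNFα quantified by sandwich ELISA in supernatants. THP-1 cells were challenged 4 hr with LPS (E. coli, 3 μg/mL).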

T2 sequence (Q16539 whole entry, canonical isoform): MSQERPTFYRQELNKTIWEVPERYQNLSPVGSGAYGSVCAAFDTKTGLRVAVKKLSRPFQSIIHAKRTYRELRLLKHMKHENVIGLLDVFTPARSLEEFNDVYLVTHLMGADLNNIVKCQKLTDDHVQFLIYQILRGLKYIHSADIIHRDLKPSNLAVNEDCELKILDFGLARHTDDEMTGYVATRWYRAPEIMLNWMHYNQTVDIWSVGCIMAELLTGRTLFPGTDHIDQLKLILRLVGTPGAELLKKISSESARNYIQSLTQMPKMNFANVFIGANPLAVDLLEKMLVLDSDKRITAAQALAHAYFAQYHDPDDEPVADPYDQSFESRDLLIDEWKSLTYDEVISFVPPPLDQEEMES

Compound	pIC50 [1]	pIC50 [2]	pEC50 [3]	pIC50 [4]	pIC50 [7]	pIC50 [5]	MTT Assay (Viability) 4 h d-U937, percentage loss of cell viability [6] [%]	MTT Assay (Viability) 24 h d-U937, percentage loss of cell viability [6] [%]
COCC(=O)Nc1cc(Oc2ccc(NC(=O)Nc3cc(C(C)(C)C)nn3-c3ccc(C)cc3)c(S(C)(=O)=O)c2)ccn1 [Example 2, N-(4-(4-(3-(3-tert-Butyl-1-p-tolyl-1H-pyrazol-5-yl)ureido)-3-(methylsulfonyl)phenoxy)pyridin-2-yl)-2-methoxyacetamide]	6.44	6.76	7.53	7.42	8.28	6.37	−3.1	32.7
COc1ccc(-n2nc(C(C)(C)C)cc2NC(=O)Nc2ccc(Oc3ccnc(NC(=O)NCCCn4ccnc4)c3)c(Cl)c2Cl)cc1 [Example 69, 1-(3-(1H-imidazol-1-yl)propyl)-3-(4-(4-(3-(3-tert-butyl-1-(4-methoxyphenyl)-1H-pyrazol-5-yl)ureido)-2,3-dichlorophenoxy)pyridin-2-yl)urea]	7.17	8.38	9.22	7.82	8.85	7.65	8.8	75.5
COCC(=O)Nc1cc(Oc2ccc(NC(=O)Nc3cc(C(C)(C)C)nn3-c3ccc(C)cc3)c(Cl)c2Cl)ccn1 [Example 36, N-(4-(4-(3-(3-tert-butyl-1-p-tolyl-1H-pyrazol-5-yl)ureido)-2,3-dichlorophenoxy)pyridin-2-yl)-2-methoxyacetamide]	6.42	8.47	9.15	7.74	8.66	8.72	−11.2	68.8
COCC(=O)Nc1cc(Oc2ccc(NC(=O)Nc3cc(C(C)(C)C)nn3-c3ccc(C)cc3)c(Cl)c2F)ccn1 [Example 35, N-(4-(4-(3-(3-tert-butyl-1-p-tolyl-1H-pyrazol-5-yl)ureido)-3-chloro-2-fluorophenoxy)pyridin-2-yl)-2-methoxyacetamide]	6.87	8.55	9.30	7.61	9.22	8.82	−0.2	73.1
COCC(=O)Nc1nccc(Oc2ccc(NC(=O)Nc3cc(C(C)(C)C)nn3-c3ccc(OC)cc3)c(Cl)c2Cl)n1 [Example 23, N-(4-(4-(3-(3-tert-Butyl-1-(4-methoxyphenyl)-1H-pyrazol-5-yl)ureido)-2,3-dichlorophenoxy)pyrimidin-2-yl)-2-methoxyacetamide]	7.32	7.92	9.52	7.80	8.66	8.70	−37.1	−24.5
COCC(=O)Nc1cc(COc2ccc(NC(=O)Nc3cc(C(C)(C)C)nn3-c3ccc(OC)cc3)c3cccnc23)ccn1 [Example 17, N-(4-((5-(3-(3-tert-Butyl-1-(4-methoxyphenyl)-1H-pyrazol-5-yl)ureido)quinolin-8-yloxy)methyl)pyridin-2-yl)-2-methoxyacetamide]	< 4.78	4.77	4.79	7.27	< 5.78	< 5.78	−11.5	4.0
COCC(=O)Nc1cc(COc2ccc(NC(=O)Nc3cc(C(C)(C)C)nn3-c3ccc(OC)cc3)c(Cl)c2Cl)ccn1 [Example 15, N-(4-((4-(3-(3-tert-Butyl-1-(4-methoxyphenyl)-1H-pyrazol-5-yl)ureido)-2,3-dichlorophenoxy)methyl)pyridin-2-yl)-2-methoxyacetamide]	6.97	6.79	7.08	7.80	7.70	7.51	−12.2	12.4
Cc1ccc(-n2nc(C3(C)CCCCC3)cc2NC(=O)Nc2ccc(Oc3ccnc(NC(=O)N4CCCC4)c3)c(Cl)c2Cl)cc1 [Example 74, N-(4-(2,3-dichloro-4-(3-(3-(1-methylcyclohexyl)-1-p-tolyl-1H-pyrazol-5-yl)ureido)phenoxy)pyridin-2-yl)pyrrolidine-1-carboxamide]	6.13	8.57	9.30	6.48	7.94	8.34	1.2	5.5
COc1ccc(-n2nc(C(C)(C)C)cc2NC(=O)Nc2ccc(Oc3ccnc(NC(=O)CN4CCOCC4)c3)c(Cl)c2Cl)cc1 [Example 45, N-(4-(4-(3-(3-tert-butyl-1-(4-methoxyphenyl)-1H-pyrazol-5-yl)ureido)-2,3-dichlorophenoxy)pyridin-2-yl)-2-morpholinoacetamide]	7.07	9.00	9.15	7.56	9.10	8.05	−4.8	56.2

Further lines, with some results ahead:

pIC50 [1]	pIC50 [2]	pEC50 [3]	pIC50 [4]	pIC50 [7]	Compound	pIC50 [5]	MTT Assay (Viability) 4 h d-U937, percentage loss of cell viability [6] [%]	MTT Assay (Viability) 24 h d-U937, percentage loss of cell viability [6] [%]
6.36	8.59	8.57	6.86	9.10	COc1ccc(-n2nc(C(C)(C)C)cc2NC(=O)Nc2ccc(Oc3ccnc(NC(=O)N4CCCC4(C)C)c3)c(Cl)c2Cl)cc1 [Example 86, N-(4-(4-(3-(3-tert-butyl-1-(4-methoxyphenyl)-1H-pyrazol-5-yl)ureido)-2,3-dichlorophenoxy)pyridin-2-yl)-2,2-dimethylpyrrolidine-1-carboxamide]	8.10	−5.1	26.7
7.24	8.51	8.96	8.25	7.98	CN(C)CCNC(=O)Nc1cc(Oc2ccc(NC(=O)Nc3cc(C(C)(C)C)nn3-c3ccc(CO)cc3)c(Cl)c2Cl)ncn1 [Example 101, 1-(3-tert-butyl-1-(4-hydroxymethylphenyl)-1H-pyrazol-5-yl)-3-(2,3-dichloro-4-(6-(3-(2-(dimethylamino)ethyl)ureido)pyrimidin-4-yloxy)phenyl)urea]	8.28	2.8	73.9
6.84	8.16	9.00	7.62	8.96	CNC(=O)Nc1cc(Oc2ccc(NC(=O)Nc3cc(C(C)(C)C)nn3-c3ccc(CO)cc3)c(Cl)c2Cl)ncn1 [Example 99, 1-(3-tert-butyl-1-(4-hydroxymethylphenyl)-1H-pyrazol-5-yl)-3-(2,3-dichloro-4-(6-(3-methylureido)pyrimidin-4-yloxy)phenyl)urea]	8.49	3.7	92.4
7.57	8.27	8.96	7.89	9.52	COc1ccc(-n2nc(C(C)(C)C)cc2NC(=O)Nc2ccc(Oc3ccnc(NC(=O)N4CCC(O)C4)c3)c(Cl)c2Cl)cc1 (centres unmarked) [Example 85, N-(4-(4-(3-(3-tert-butyl-1-(4-methoxyphenyl)-1H-pyrazol-5-yl)ureido)-2,3-dichlorophenoxy)pyridin-2-yl)-3-hydroxypyrrolidine-1-carboxamide]	9.22	−25.1	58.6
